{
  "source": "patent US20030109546A1",
  "about": "“Treatment of psychotic disorders comprising co-therapy with anticonvulsant derivatives and atypical antipsychotics” (priority 2001, published 2003)",
  "key": {"seizures": {"tested_on": "seizures", "conditions": "several rodent models of epilepsy; cited from earlier work"}, "schizophrenia [1]": {"tested_on": "schizophrenia", "assay": "Example 2 open label pilot study on topiramate as adjunctive therapy in schizophrenia", "format": "in vivo, human", "conditions": "Patient 1", "procedure": "Results from Open Label Pilot Study on Topiramate as Adjunctive Therapy in the Treatment of Schizophrenia\nThe patient was a person who met DSM-IV diagnostic criteria for chronic undifferentiated schizophrenia. […] The patient had been maintained on a stable regimen of 20 mg olanzapine prior to initiation of the study. […] Although the patient lived in a group home with other residents, they preferred to spend most of their free time alone, watching television or staying in their room, and went to bed between 7 and 8 o'clock each night. The patient had limited social interactions in the partial hospitalization program, initiating contact with only a few friends. The patient was intrusive during groups and was unable to empathize with others within the group.\nThe patient was begun on topiramate at an initial dose of 25 mg/day, titrating to an optimal dosage level of 175 mg/day, which was given in two divided doses during an eight week maintenance medication phase of a clinical trial.\nThey also became less stereotyped in their speech, with very infrequent references to their previous recurrent theme of golf. After 12 weeks of adjunctive therapy with topiramate, the patient also appeared more realistic about their golfing skills, stating than they were an “average” golfer, as opposed to their previous assertions about winning several club tournaments.\nThe patient also resumed going to bed around 6:30 or 7:00 pm each night."}, "[2]": {"tested_on": "schizophrenia, undifferentiated type", "assay": "Example 4 case study: topiramate added to haloperidol and risperidone", "format": "in vivo, human", "excerpt": "The patient was a person, who was first hospitalized in 1983 on an involuntary basis-due to their inability to care for themself. Upon admission, they were described as paranoid, suspicious, agitated, and delusional, and was given the diagnosis of schizophrenia, undifferentiated type. They expressed persecutory delusions saying that the Mafia was going to hurt them. They heard voices telling them that someone was going to rape their parent. After one year of hospitalization, they were discharged into the community, where they soon became unstable resulting in two suicide attempts by hanging and two more short-term hospitalizations. In 1988 the patient was admitted into a state hospital for long-term treatment where they remain to this day. Over the past decade or more, their clinical picture had remained unchanged. They had been treated with numerous anti-psychotic medications, including the newer a typical medicines with little or no benefit. Their high level of agitation and persecutory delusions often propelled them into confrontations with staff and other patients, and they were regularly treated with PRN medications or placed into seclusion for their behavior. […] The topiramate dosage was titrated at a rate of 50 mg per week up to a daily dosage of 150 mg, at which dose the patient remained for a period of 4 months. Within the first month of treatment with topiramate several important clinical changes began to emerge. […] Within 1-2 weeks, the patient was no longer in seclusion and the use of PRN medication for agitation became very rare. Second, the patient's expressions persecutory delusions or suspiciousness decreased, and they were able to join into group activities on the unit."}, "schizophrenia [3]": {"tested_on": "schizophrenia", "assay": "Example 3 case study: augmentation of clozapine treatment", "format": "in vivo, human", "excerpt": "The patient was a morbidly obese person, who was first hospitalized in 1966 for psychotic symptoms, leading to a psychiatric diagnosis of schizophrenia. Their primary symptoms consisted of a set of strange and elaborate ideas about transmitting their thoughts to others, thoughts that they had invented “invisible steel” which was being used by the CIA and aliens, and a high degree of suspiciousness about the discriminatory intent of their clergyman and the local police. They denied any overt hallucinations, although they acknowledged “weird noises” associated with aliens attempting to contact them. At initial hospitalization, the patient was also profoundly confused and disorganized in their thought processes. Over the next two decades they were hospitalized four more times with essentially this same clinical picture, eventually being admitted in 1989 to a state hospital for long-term treatment where they remain to this day.\nDuring their five hospitalizations the patient was treated with a variety of anti-psychotic medications, often in various combinations and dosages. In 1994 they were characterized as being treatment refractory according to the Kane criteria and enrolled in an NIMH sponsored study of three different doses of clozapine. As a participant in this study the patient received 100, 300, 600 mg, each for a 3-month period.\nThe patient was nonetheless continued on a 100 mg dose of clozapine, with the intent of using a variety of different augmentation strategies to possibly improve their clinical state. […] Throughout this period, the patient's strange and bizarre ideas persisted. They remained emotionally withdrawn, and required regular PRN medication to reduce their agitation on the ward.\nToward the end of the year 2000, the patient was treated with a drug regimen of 100 mg of clozapine, 2 mg of risperidone, and 750 mg of valproic acid. At this time, the patient agreed to augment their treatment with topiramate. The valproic acid was gradually withdrawn, and on Dec. 5, 2000 the patient was started on 50 mg of topiramate. The topiramate was increased at a rate of 50 mg per week up to a daily dosage of 200 mg where they remained for over four months. Within the first 2-3 weeks of topiramate treatment several important clinical changes were observed. […] Rather than being very certain about their ability to transmit thought to others they now are not sure that this is possible. They were also no longer certain that they actually invented “invisible steel”, but instead mostly only believed that they once thought it, although occasionally the delusional belief breaks though into their thinking. […] Second, as a result of treatment with topiramate the patient's agitation was decreased and PRN medication for agitation was no longer required."}, "kindled epilepsy": {"tested_on": "kindled epilepsy", "conditions": "animal model of kindled epilepsy; cited from earlier work"}, "schizoaffective disorder": {"tested_on": "schizoaffective disorder", "assay": "Example 1 case study: topiramate added to olanzapine-containing regimen", "format": "in vivo, human", "excerpt": "The patient was a single person, diagnosed with schizoaffective disorder, who presented with a variety of problems including disorganized behavior, suspiciousness, ideas of reference, stereotyped and obsessional thinking, lack of motivation, poor hygiene, poverty of speech, oppositional behavior and intermittent suicide attempts. The patient spent virtually the entire day in bed and was awake through the night. […] Despite continuous psychiatric and pharmacological treatment, the patient remained substantially disabled by withdrawal, apathy, poverty of speech, poor hygiene, anhedonia and suspiciousness. […] In addition, the patient was seen weekly in individual psychotherapy. There were no additional active medical problems. The patient was started on topiramate with dosages increased over a period of six weeks to 400 mg/day. […] In addition, the patient's residual positive symptoms, including primary suspiciousness and ideas of reference, were improved and the patient became less fearful of interacting with other. Patient's social functioning was improved, with the patient able to hold part-time employment. […] The patient maintained their part-time employment and engaged in productive social activity several times a week. […] (Lorazepam was removed with sustained improvement.)"}, "[4]": {"tested_on": "simple and complex partial seizures and secondarily generalized seizures", "conditions": "adjunctive therapy or monotherapy; cited from earlier work"}, "schizophrenia [5]": {"tested_on": "schizophrenia", "assay": "Example 2 open label pilot study on topiramate as adjunctive therapy in schizophrenia", "format": "in vivo, human"}, "[6]": {"conditions": "topiramate 175 mg/day added to 20 mg olanzapine"}, "[7]": {"conditions": "topiramate 25 to 175 mg/day added to 20 mg olanzapine"}, "[8]": {"conditions": "period of treatment that included topiramate"}, "[9]": {"conditions": "topiramate 50 to 150 mg daily added to haloperidol and risperidone"}, "[10]": {"conditions": "topiramate 50 to 200 mg daily added to 100 mg clozapine, 2 mg risperidone"}, "[11]": {"conditions": "topiramate up to 400 mg/day added to olanzapine-containing regimen"}},
  "data": [
    {"compound": "CC1(C)O[C@@H]2[C@@H](CO[C@@]3(COS(N)(=O)=O)OC(C)(C)O[C@@H]23)O1", "note": "[topiramate, 2,3:4,5-bis-O-(1-methylethylidene)-β-D-fructopyranose sulfamate]", "values": [
      {"measurement": "seizure block", "setting": "seizures", "value": "effectively block seizures"},
      {"measurement": "change in the Positive or General Scales of the PANSS", "setting": "schizophrenia [1]; [6]", "value": "did not show any consistent, significant change"},
      {"measurement": "decrease in the Negative Scale score (PANSS) from baseline", "setting": "schizophrenia [1]; [6]", "value": 7, "unit": "points"},
      {"measurement": "tolerability", "setting": "schizophrenia [1]; [7]", "value": "well tolerated"},
      {"measurement": "vital signs and laboratory values", "setting": "schizophrenia [1]; [7]", "value": "remained within the normal range"},
      {"measurement": "Negative Scale score after discontinuation of topiramate", "setting": "schizophrenia [1]; upon completion of the study protocol", "value": "increase in the Negative Scale score"},
      {"measurement": "intensity of positive symptoms (auditory hallucinations, delusions of persecution)", "setting": "[2]; [8]", "value": "reduced in occurrence and severity"},
      {"measurement": "social withdrawal", "setting": "[2]; [8]", "value": "less socially withdrawn"},
      {"measurement": "expressions of persecutory delusions or suspiciousness", "setting": "[2]; [9]", "value": "decreased"},
      {"measurement": "negative symptoms", "setting": "[2]; [9]", "value": "fewer negative symptoms"},
      {"measurement": "level of agitation", "setting": "[2]; topiramate 50 to 150 mg daily added to haloperidol and risperidone, within first month", "value": "reduced dramatically"},
      {"measurement": "clinical state (opinion of the treatment team)", "setting": "schizophrenia [3]; addition of topiramate", "value": "clear and important degree of improvement"},
      {"measurement": "level of suspiciousness", "setting": "schizophrenia [3]; [10]", "value": "decreased"},
      {"measurement": "thought organisation / conversation", "setting": "schizophrenia [3]; [10]", "value": "able to engage in a logical conversation"},
      {"measurement": "agitation", "setting": "schizophrenia [3]; topiramate 50 to 200 mg daily added to 100 mg clozapine, 2 mg risperidone, PRN medication no longer required", "value": "decreased"},
      {"measurement": "level of preoccupation with delusional thoughts", "setting": "schizophrenia [3]; topiramate 50 to 200 mg daily added to 100 mg clozapine, 2 mg risperidone, within first 2-3 weeks", "value": "obviously reduced"},
      {"measurement": "seizure block", "setting": "kindled epilepsy", "value": "effectively block seizures"},
      {"measurement": "maintenance of improvement", "setting": "schizoaffective disorder; after 5 months, topiramate decreased to 300 mg/day", "value": "improvements maintained"},
      {"measurement": "maintenance of improvement", "setting": "schizoaffective disorder; after 10 months, 300 mg topiramate, 7.5 mg olanzapine, 400 mg fluvoxamine, 1 mg lorazepam daily", "value": "improvement was still sustained"},
      {"measurement": "maintenance of improvement", "setting": "schizoaffective disorder; after more than 2 years, 300 mg topiramate, 7.5 mg olanzapine, 400 mg fluvoxamine daily", "value": "remained improved"},
      {"measurement": "negative symptoms (eye contact, attention, concentration, poverty of speech, grooming, hygiene, withdrawal)", "setting": "schizoaffective disorder; topiramate increased over six weeks to 400 mg/day, added to fluvoxamine, Depakote, lorazepam, olanzapine 10 mg, over 8 weeks", "value": "significant improvement"},
      {"measurement": "residual positive symptoms (suspiciousness, ideas of reference)", "setting": "schizoaffective disorder; [11]", "value": "improved"},
      {"measurement": "social functioning", "setting": "schizoaffective disorder; [11]", "value": "improved"},
      {"measurement": "efficacy in treating simple and complex partial seizures and secondarily generalized seizures", "setting": "[4]", "value": "effective"},
      {"measurement": "response with regards to negative symptoms", "setting": "schizophrenia [5]; Patients 2 & 3, adjunctive topiramate", "value": "did not respond significantly"},
      {"measurement": "positive symptoms", "setting": "schizophrenia [5]; Patients 2 & 3, over the course of the trial", "value": "decreases in positive symptoms"},
      {"measurement": "negative symptoms", "setting": "schizophrenia [5]; one of Patients 2 & 3, fluctuated during drug maintenance period", "value": "limited decrease"},
      {"measurement": "side effect potentially attributable to topiramate", "setting": "schizophrenia [5]; second of Patients 2 & 3, topiramate 100 mg/day", "value": "difficulties with verbal fluency and word finding"},
      {"measurement": "negative symptoms", "setting": "schizophrenia [5]; second of Patients 2 & 3, topiramate 100 mg/day lowered to 75 mg/day, dropped from study", "value": "significant decrease"}
    ]},
    {"compound": "CN1CCN(C2=Nc3cc(Cl)ccc3Nc3ccccc32)CC1", "note": "[clozapine, 8-chloro-11-(4-methyl-1-piperazinyl)-5H-dibenzo[b,e][1,4]diazepine]", "values": [
      {"measurement": "adverse event", "setting": "schizophrenia [3]; 900 mg of clozapine", "value": "led to a seizure"},
      {"measurement": "response to treatment", "setting": "schizophrenia [3]; clozapine 100, 300, 600 mg, each for 3 months (NIMH study)", "value": "did not show any meaningful response"}
    ]},
    {"compound": "CCCC(CCC)C(=O)O", "note": "[Depakote, divalproex sodium]", "values": [
      {"measurement": "benefit when added to clozapine treatment", "setting": "schizophrenia [3]; up to 5000 mg added to clozapine, 1999", "value": "little benefit"}
    ]},
    {"compound": "Cc1nc2n(c(=O)c1CCN1CCC(c3noc4cc(F)ccc34)CC1)CCCC2", "note": "[risperidone, 3-[2-[4-(6-fluoro-1,2-benzisoxazol-3-yl)piperidino]ethyl]-2-methyl-6,7,8,9-tetrahydro-4H-pyrido-[1,2-a]pyrimidin-4-one]", "values": [
      {"measurement": "adverse event when added to clozapine treatment", "setting": "schizophrenia [3]; standard dose added to 100 mg clozapine", "value": "severe tremors"},
      {"measurement": "effect when added to clozapine treatment", "setting": "schizophrenia [3]; standard doses added to 100 mg clozapine", "value": "little effect"},
      {"measurement": "benefit of clozapine augmentation with low dose risperidone", "setting": "schizophrenia [3]; study in 2000", "value": "lack of treatment benefit"}
    ]}
  ]
}
